Molecular target: T1, recombinant C. elegans kinesin-II (heterotrimeric kinesin-2) (Caenorhabditis elegans, UniProt Q19633+Q965T6)
T1 sequence (Q19633 1-782): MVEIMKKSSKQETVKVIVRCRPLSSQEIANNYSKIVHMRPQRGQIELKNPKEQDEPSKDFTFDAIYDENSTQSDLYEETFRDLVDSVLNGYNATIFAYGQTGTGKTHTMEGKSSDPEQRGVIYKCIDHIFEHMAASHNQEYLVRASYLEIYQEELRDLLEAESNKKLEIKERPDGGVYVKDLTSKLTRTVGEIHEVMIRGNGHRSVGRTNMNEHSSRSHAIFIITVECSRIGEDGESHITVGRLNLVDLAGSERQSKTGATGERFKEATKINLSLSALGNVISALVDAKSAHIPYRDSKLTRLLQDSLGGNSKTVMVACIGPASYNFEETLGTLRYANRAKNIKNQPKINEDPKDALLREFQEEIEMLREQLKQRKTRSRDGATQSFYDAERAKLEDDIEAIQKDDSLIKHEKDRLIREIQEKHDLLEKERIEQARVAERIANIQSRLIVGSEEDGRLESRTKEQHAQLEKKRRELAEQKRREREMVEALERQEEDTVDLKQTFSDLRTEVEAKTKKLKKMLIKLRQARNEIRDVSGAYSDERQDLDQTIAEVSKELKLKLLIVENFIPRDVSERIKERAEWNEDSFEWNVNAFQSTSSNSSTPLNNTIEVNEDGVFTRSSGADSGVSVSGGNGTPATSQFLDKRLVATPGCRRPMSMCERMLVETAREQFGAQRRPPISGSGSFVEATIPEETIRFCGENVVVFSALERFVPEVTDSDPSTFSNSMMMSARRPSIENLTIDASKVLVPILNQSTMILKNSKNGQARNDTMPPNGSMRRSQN
T1 sequence (Q965T6 1-646): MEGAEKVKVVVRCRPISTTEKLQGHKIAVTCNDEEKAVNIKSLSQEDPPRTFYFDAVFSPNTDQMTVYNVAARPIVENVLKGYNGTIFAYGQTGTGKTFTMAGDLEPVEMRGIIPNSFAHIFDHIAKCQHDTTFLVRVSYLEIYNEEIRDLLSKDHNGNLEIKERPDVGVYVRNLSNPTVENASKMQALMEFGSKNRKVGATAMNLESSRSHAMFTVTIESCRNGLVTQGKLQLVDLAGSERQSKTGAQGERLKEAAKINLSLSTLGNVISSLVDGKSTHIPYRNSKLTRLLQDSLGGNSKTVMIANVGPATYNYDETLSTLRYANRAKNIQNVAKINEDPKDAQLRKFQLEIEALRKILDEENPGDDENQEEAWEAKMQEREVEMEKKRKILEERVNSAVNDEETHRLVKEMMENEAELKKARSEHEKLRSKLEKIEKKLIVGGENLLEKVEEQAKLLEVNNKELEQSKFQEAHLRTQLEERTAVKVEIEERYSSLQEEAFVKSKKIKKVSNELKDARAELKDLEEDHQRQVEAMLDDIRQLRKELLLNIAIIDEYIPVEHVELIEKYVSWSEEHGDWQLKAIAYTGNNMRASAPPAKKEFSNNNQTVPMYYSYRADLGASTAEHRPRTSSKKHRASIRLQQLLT
T1 sequence (G5EEE6 1-713 partner): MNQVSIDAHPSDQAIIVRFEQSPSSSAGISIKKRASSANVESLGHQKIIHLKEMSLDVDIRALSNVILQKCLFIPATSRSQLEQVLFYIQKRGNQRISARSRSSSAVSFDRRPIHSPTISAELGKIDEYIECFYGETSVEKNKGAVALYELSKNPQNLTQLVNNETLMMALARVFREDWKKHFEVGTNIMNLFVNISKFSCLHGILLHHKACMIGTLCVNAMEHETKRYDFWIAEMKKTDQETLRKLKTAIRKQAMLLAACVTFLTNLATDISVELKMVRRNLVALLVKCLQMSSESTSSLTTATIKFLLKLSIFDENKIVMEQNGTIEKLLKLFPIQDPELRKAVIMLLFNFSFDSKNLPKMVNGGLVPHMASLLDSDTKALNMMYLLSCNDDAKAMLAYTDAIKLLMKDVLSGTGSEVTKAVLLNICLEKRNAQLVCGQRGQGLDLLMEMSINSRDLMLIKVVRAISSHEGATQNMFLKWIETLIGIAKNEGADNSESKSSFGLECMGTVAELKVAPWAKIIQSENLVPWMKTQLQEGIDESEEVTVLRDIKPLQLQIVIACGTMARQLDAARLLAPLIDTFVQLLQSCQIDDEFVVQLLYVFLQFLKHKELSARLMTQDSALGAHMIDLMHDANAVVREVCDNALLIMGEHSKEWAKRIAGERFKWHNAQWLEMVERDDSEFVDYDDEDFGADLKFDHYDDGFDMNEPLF
Assay: microtubule gliding velocity assay
Format: biochemical
Conditions: read-out: Recombinant C. elegans kinesin-II; Mg-ATP; microtubules; 21°C

Km: 280 ± 50 µM
Structure (SMILES): Nc1ncnc2c1ncn2[C@@H]1O[C@H](COP(=O)(O)OP(=O)(O)OP(=O)(O)O)[C@@H](O)[C@H]1O [Mg-ATP]

— article PMC2064394 (The Journal of Cell Biology, 2006)
